molecular target: T1, human Kv1.3 (Homo sapiens, UniProt P22001); assay: Kv1.3 Autopatch electrophysiology (whole cell patch-clamp, inhibition of charge movement); format: cell-based; conditions: compound at 1 μM; cells stably transfected with human Kv1.3; room temperature; total charge during step to +30 mV relative to control
T1 construct: expressed in transfected cells; host or cells: stably transfected cells grown in medium for CHO cells
Method: Kv1.3 Autopatch Electrophysiology Method
Compounds were tested on these cells using the AutoPatch technology in whole cell mode.
The external bathing solution contained (in mM): 150 NaCl, 10 KCl, 1 MgCl2, 3 CaCl2, 10 HEPES, pH 7.4 with NaOH. Patch pipettes were filled with an electrode solution of composition (in mM): 100 K-Gluconate, 20 KCl, 1 MgCl2, 1 CaCl2, 10 HEPES, 11 EGTA, 5 ATP-Na2, 2 Glutathione pH 7.2 with KOH.
Compounds were dissolved in DMSO (100%) and made up in the external bather at a concentration of 1 μM immediately prior to use. All experiments were conducted at room temperature.
A cell suspension (10 ml), with a density of 6×10^6 cells, was aliquoted into a 15 ml centrifuge tube and stored at 4° C. before use. Prior to use a tube was taken and centrifuged at 1000 rpm for 4 mins at room temperature. The supernatant was then discarded, leaving a cell pellet at the bottom of the tube. The pellet was then resuspended using 1 ml of cold (4° C.), filtered (0.22 μm), 0.05% BSA/bather solution (0.05 g BSA/100 ml bather). The bottom of the tube was manually agitated followed by gentle tituration. The cell suspension was then placed in the AutoPatch™ temperature controlled cell-hotel at 14° C. and regularly titurated.
A length of Teflon capillary tubing was dipped into the cell suspension solution, and a column of fluid was taken up by negative pressure. The column of fluid was in electrically connectivity with a Ag/AgCl reference electrode. Borosilicate glass patch pipettes (from 1.5 mm OD, thin-walled filamented, GC150-TF capillary glass, Harvard) were pulled using a DMZ pipette puller (Zeitz Instruments), and were back-filled using the internal pipette solution, being careful that no bubbles remained at the tip or in the body of the pipette. Patch pipettes typically had resistances of 2.5-3.5 MΩ. Once filled, the pipette tip and a proportion of the shaft (˜15 mm) were dipped into Sigmacote (Sigma). The recording pipettes were placed in a multiwell array and mounted on the AutoPatch™ machine. Automated patch-clamping and drug-application was initiated by the operator, but thereafter AutoPatch.exe continued the experiment providing that pre-set conditions and criteria were satisfied.
Whole cell patch-clamp recordings were made using the AutoPatch™ rig, which incorporated an EPC9 or EPC10 amplifier (HEKA, Germany) under control of Pulse software (v8.54 or v8.76, HEKA, Germany), a cell applicator, automated drug application system (DAS), valve controller (VF1) and a suction device all at room temperature. This equipment was completely under the control of AutoPatch.exe and operator intervention was only made when there was a requirement to refill the bather reservoirs or to prevent the loss of a cell due to a technical error.
Cells were continuously perfused with external solution at a flow rate of ˜2 ml/minute.
Electrophysiology voltage-step protocols and analysis of data was performed as follows. Data were sampled at 5 kHz, and filtered with a −3 dB bandwidth of 2.5 kHz. Cells were held at a voltage of −80 mV. Currents were evoked by a voltage step to +30 mV for 500 ms in duration applied every 15 s. Online analysis of the hKv1.3 current during the application of compounds was performed by the Pulse (v8.54 or v8.76, HEKA, Germany), Excel (Microsoft, USA) and AutoPatch™ software, with the total charge measured during the whole of voltage step. Inhibition of charge movement in the presence of drug was calculated relative to control.

T1 sequence (P22001 whole entry): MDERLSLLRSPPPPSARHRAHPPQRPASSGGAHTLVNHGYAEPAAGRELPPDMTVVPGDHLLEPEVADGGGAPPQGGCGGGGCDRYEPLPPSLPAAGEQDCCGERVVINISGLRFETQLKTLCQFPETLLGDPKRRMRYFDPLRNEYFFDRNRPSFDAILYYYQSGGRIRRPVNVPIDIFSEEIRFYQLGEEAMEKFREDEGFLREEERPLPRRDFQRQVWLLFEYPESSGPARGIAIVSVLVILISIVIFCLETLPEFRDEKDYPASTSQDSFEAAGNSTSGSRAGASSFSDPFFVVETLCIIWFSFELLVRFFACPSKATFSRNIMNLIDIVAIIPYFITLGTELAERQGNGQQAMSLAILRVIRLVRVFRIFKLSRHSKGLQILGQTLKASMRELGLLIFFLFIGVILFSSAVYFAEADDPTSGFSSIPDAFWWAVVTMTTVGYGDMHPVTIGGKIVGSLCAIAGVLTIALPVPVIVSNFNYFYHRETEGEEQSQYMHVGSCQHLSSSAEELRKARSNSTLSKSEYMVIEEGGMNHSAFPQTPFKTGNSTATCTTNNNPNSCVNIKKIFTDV

Compound	hKv1.3 % inh. [%]
1-Methyl-1H-imidazole-4-sulfonic acid benzyl-[4-(3-phenyl-piperidine-1-carbonyl)-phenyl]-amide [Example 64]	86
CN(C)S(=O)(=O)N(Cc1ccccc1)c1ccc(C(=O)N2CCC(O)(c3ccccc3)CC2)cc1 [Example 71, N-Benzyl-N′N′-dimethyl-N-[4-(4-hydroxy-4-phenyl-piperidine-1-carbonyl)-phenyl]-sulfamide]	27
CN(C)S(=O)(=O)N(Cc1ccccc1)c1ccc(C(=O)N2CCC(OCc3ccccc3)C2)cc1 (stereo not drawn) [Example 70, N-Benzyl-N′N′-dimethyl-N-[4-(3-benzyloxy-pyrrolidine-1-carbonyl)-phenyl]-sulfamide]	26

same assay, conditions: compound at 1 μM; cells stably transfected with human Kv1.3; room temperature; total charge during step to +30 mV relative to control; read-out: hKv1.3 % inh.

Compound	inhibition at 1 µM [%]
Cc1noc(C2CCCN(C(=O)c3ccc(N(Cc4ccc(Cl)cc4)S(=O)(=O)c4cn(C)cn4)cc3)C2)n1 (stereo not drawn) [Example 60, 1-Methyl-1H-imidazole-4-sulfonic acid (4-chloro-benzyl)-{4-[3-(3-methyl-[1,2,4]oxadiazol-5-yl)-piperidine-1-carbonyl]-phenyl}-amide]	83
O=C(c1ccc(N(Cc2ccc(C(F)(F)F)cc2)S(=O)(=O)c2ccccc2)cc1)N1CCN(c2ccccc2)CC1 [Example 36, N-[4-(4-Phenyl-piperazine-1-carbonyl)-phenyl]-N-(4-trifluoromethyl-benzyl)-benzenesulfonamide]	50
Cc1ncc(S(=O)(=O)N(Cc2ccccc2)c2ccc(C(=O)N3CCN(c4ccccc4)CC3)cc2)n1C [Example 47, 2,3-Dimethyl-3H-imidazole-4-sulfonic acid benzyl-[4-(4-phenyl-piperazine-1-carbonyl)-phenyl]-amide]	50
Cc1ccccc1CN(c1ccc(C(=O)N2CCN(c3ccccc3)CC2)cc1)S(=O)(=O)c1ccccc1 [Example 34, N-(2-Methyl-benzyl)-N-[4-(4-phenyl-piperazine-1-carbonyl)-phenyl]-benzenesulfonamide]	85
O=C(c1ccc(N(Cc2ccccc2)S(=O)(=O)c2ccc3ccccc3c2)cc1)N1CCN(c2ccccc2)CC1 [Example 13, Naphthalene-2-sulfonic acid benzyl-[4-(4-phenyl-piperazine-1-carbonyl)-phenyl]-amide]	51
O=C(c1ccc(N(Cc2ccccc2)S(=O)(=O)c2ccccc2)cc1)N1CCCCC1 [Example 3, N-Benzyl-N-[4-(piperidine-1-carbonyl)-phenyl]-benzenesulfonamide]	94
CN(C)S(=O)(=O)N(Cc1ccccc1)c1ccc(C(=O)N2CCOC(c3ccccc3)C2)cc1 (stereo not drawn) [Example 6, N-Benzyl-N-[4-(2-phenyl-morpholine-4-carbonyl)-phenyl]-N′,N′-dimethylsulfamide]	60
CN1CCN(C(=O)c2ccc(N(Cc3ccccc3)S(=O)(=O)c3cn(C)cn3)cc2)CC1 [Example 7, 1-Methyl-1H-imidazole-4-sulfonic acid benzyl-[4-(4-methyl-piperazine-1-carbonyl)-phenyl]-amide]	38
Cc1cccc(S(=O)(=O)N(Cc2ccccc2)c2ccc(C(=O)N3CCN(c4ccccc4)CC3)cc2)c1 [Example 27, N-Benzyl-3-methyl-N-[4-(4-phenyl-piperazine-1-carbonyl)-phenyl]-benzenesulfonamide]	55

Other lines, results leading:

inhibition at 1 µM [%]	Compound
46	Cn1ccc(S(=O)(=O)N(Cc2ccccc2)c2ccc(C(=O)N3CCNC(c4ccccc4)C3)cc2)n1 (stereo not drawn) [Example 88, 1-Methyl-1H-pyrazole-3-sulfonic acid benzyl-[4-(3-phenyl-piperazine-1-carbonyl)-phenyl]-amide]
67	CN(C)S(=O)(=O)N(Cc1ccccc1)c1ccc(C(=O)N2CCOC(c3ccccc3)C2)cc1F (stereo not drawn) [Example 73, N-Benzyl-N-[2-fluoro-4-(2-phenyl-morpholine-4-carbonyl)-phenyl]-N′,N′-dimethylsulfamide]
30	Cn1cnc(S(=O)(=O)N(Cc2ccccc2)c2ccc(C(=O)N3CCCC(F)C3)cc2)c1 (stereo not drawn) [Example 80, 1-Methyl-1H-imidazole-4-sulfonic acid benzyl-[4-(3-fluoro-piperidine-1-carbonyl)-phenyl]-amide]
88	Cn1ccc(S(=O)(=O)N(Cc2ccc(Cl)cc2)c2ccc(C(=O)N3CCCCC3)cc2)n1 [Example 86, 1-Methyl-1H-pyrazole-3-sulfonic acid (4-chloro-benzyl)-[4-(piperidine-1-carbonyl)-phenyl]-amide]
64	CN1CCN(C(=O)c2ccc(N(Cc3ccccc3)S(=O)(=O)c3cn(C)cn3)cc2)CC1c1ccccc1 (stereo not drawn) [Example 83, 1-Methyl-1H-imidazole-4-sulfonic acid benzyl-[4-(4-methyl-3-phenyl-piperazine-1-carbonyl)-phenyl]-amide]
51	Cc1ccc(CN(c2ccc(C(=O)N3CCCC(C)C3)cc2)S(=O)(=O)c2cn(C)cn2)cc1 (stereo not drawn) [Example 95, 1-Methyl-1H-imidazole-4-sulfonic acid (4-methyl-benzyl)-[4-(3-methyl-piperidine-1-carbonyl)-phenyl]-amide]
51	CC1CCCN1C(=O)c1ccc(N(Cc2ccc(Cl)cc2)S(=O)(=O)c2cn(C)cn2)cc1 (stereo not drawn) [Example 98, 1-Methyl-1H-imidazole-4-sulfonic acid (4-chloro-benzyl)-[4-(2-methyl-pyrrolidine-1-carbonyl)-phenyl]-amide]
48	Cn1cnc(S(=O)(=O)N(Cc2ccc(Cl)c(Cl)c2)c2ccc(C(=O)N3CCCCC3)cc2)c1 [Example 96, 1-Methyl-1H-imidazole-4-sulfonic acid (3,4-dichloro-benzyl)-[4-(piperidine-1-carbonyl)-phenyl]-amide]
60	Cn1cnc(S(=O)(=O)N(Cc2ccccc2)c2ccc(C(=O)N3CCC(F)(F)CC3)cc2)c1 [Example 79, 1-Methyl-1H-imidazole-4-sulfonic acid benzyl-[4-(4,4-difluoro-piperidine-1-carbonyl)-phenyl]-amide]
61	CC1CCCN(C(=O)c2ccc(N(Cc3ccc(Cl)cc3)S(=O)(=O)c3cn(C)cn3)cc2)C1 (stereo not drawn) [Example 92, 1-Methyl-1H-imidazole-4-sulfonic acid (4-chloro-benzyl)-[4-(3-methyl-piperidine-1-carbonyl)-phenyl]-amide]
42	Cn1cnc(S(=O)(=O)N(Cc2ccccc2)c2ccc(C(=O)N3CCN(c4nccs4)CC3)cc2)c1 [Example 77, 1-Methyl-1H-imidazole-4-sulfonic acid benzyl-[4-(4-thiazol-2-yl-piperazine-1-carbonyl)-phenyl]-amide]
57	Cn1cnc(S(=O)(=O)N(Cc2ccccc2)c2ccc(C(=O)N3CCN(C(=O)OC(C)(C)C)C(c4ccccc4)C3)cc2)c1 (stereo not drawn) [Example 81, 4-{4-[Benzyl-(1-methyl-1H-imidazole-4-sulfonyl)-amino]-benzoyl}-2-phenyl-piperazine-1-carboxylic acid tert-butyl ester]
